# Measured values from patent US20130267594A1, “PROLYL HYDROXYLASE INHIBITORS AS RADIATION MITIGATORS AND RADIATION PROTECTORS” (priority 2010, published 2013).
# Assays:
# MTA3 [1] = format: cell-based
# Suv39h1 = format: cell-based
# Hif1α [2] = format: cell-based
# Hif1α [3] = format: cell-based, mouse
# CHD4 [4] = format: cell-based
# CHD4 [5] = format: cell-based; remark: listed apart in the source
# MTA3 [6] = format: cell-based; remark: listed apart in the source
structure (smiles),measurement,setting,value
[Cl-].[Cl-].[Co+2] [CoCl2],MTA3 protein levels,MTA3 [1],increased
same,expression of the Suv39h1 methyltransferase,Suv39h1,"to a lesser extent, CoCl2, increased expression of the Suv39h1 methyltransferase"
same,Hif1α protein levels,Hif1α [2],increased
same,accumulation of Hif1α,Hif1α [2],significant accumulation of Hif1α
same,"accumulation of Hif1α protein in combination with IR, versus agent alone",Hif1α [2],much larger accumulation of Hif1α protein
same,ability to increase Hif1α levels in SuvDKO MEFs,Hif1α [3],not altered
same,CHD4 mRNA levels,CHD4 [4],increased
same,CHD4 protein levels,CHD4 [5],increased
same,MTA3 mRNA levels,MTA3 [6],increased
